The text below walks through data of article PMC5577603, “Marine Inspired 2-(5-Halo-1H-indol-3-yl)-N,N-dimethylethanamines as Modulators of Serotonin Receptors: An Example Illustrating the Power of Bromine as Part of the Uniquely Marine Chemical Space” (Marine Drugs, 2017).

Common to all, as to assay: receptor binding assay (NIMH PDSP)
In test [1] the target is T1, 5-HT1A (Homo sapiens, UniProt P08908).
T1 construct: gene HTR1A; cloned receptor, NIMH PDSP panel
T1 sequence (P08908 1-422): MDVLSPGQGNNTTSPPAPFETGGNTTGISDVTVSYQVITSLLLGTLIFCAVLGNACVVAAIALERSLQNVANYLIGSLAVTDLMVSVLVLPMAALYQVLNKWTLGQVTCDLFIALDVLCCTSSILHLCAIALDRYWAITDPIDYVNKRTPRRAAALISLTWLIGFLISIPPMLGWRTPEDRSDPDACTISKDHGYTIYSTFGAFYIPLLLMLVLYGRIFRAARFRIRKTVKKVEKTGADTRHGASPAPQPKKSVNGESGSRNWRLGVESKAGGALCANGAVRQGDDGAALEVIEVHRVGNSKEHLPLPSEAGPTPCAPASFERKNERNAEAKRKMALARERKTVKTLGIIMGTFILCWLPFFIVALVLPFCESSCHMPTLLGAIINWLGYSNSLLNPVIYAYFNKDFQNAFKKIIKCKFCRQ
From the text: receptor binding assay (NIMH PDSP) on 5-HT1A

The target of test [2] is T2, 5-HT5A (Homo sapiens, UniProt P47898).
T2 construct: gene HTR5A; cloned receptor, NIMH PDSP panel
From the text: receptor binding assay (NIMH PDSP) on 5-HT5A

Test [3] concerns the target T3, 5-HT1B (Homo sapiens, UniProt P28222).
T3 construct: gene HTR1B; cloned receptor, NIMH PDSP panel
From the text:
receptor binding assay (NIMH PDSP) on 5-HT1B

The target of test [4] is T4, 5-HT7 (Homo sapiens, UniProt P34969).
T4 construct: gene HTR7; cloned receptor, NIMH PDSP panel
From the text: receptor binding assay (NIMH PDSP) on 5-HT7

In test [5] the target is T5, 5-HT1D (Homo sapiens, UniProt P28221).
T5 construct: gene HTR1D; cloned receptor, NIMH PDSP panel
From the text: receptor binding assay (NIMH PDSP) on 5-HT1D

Test [6] concerns the target T6, 5-HT1E (Homo sapiens, UniProt P28566).
T6 construct: gene HTR1E; cloned receptor, NIMH PDSP panel
From the text: receptor binding assay (NIMH PDSP) on 5-HT1E

The target of test [7] is T7, 5-HT6 (Homo sapiens, UniProt P50406).
T7 construct: gene HTR6; cloned receptor, NIMH PDSP panel
From the text:
receptor binding assay (NIMH PDSP) on 5-HT6

Test [8] deals with T8, 5-HT2B (Homo sapiens, UniProt P41595).
T8 construct: gene HTR2B; cloned receptor, NIMH PDSP panel

Like-named read-outs stand apart in the source and are kept apart here.

T2 sequence (P47898 whole entry): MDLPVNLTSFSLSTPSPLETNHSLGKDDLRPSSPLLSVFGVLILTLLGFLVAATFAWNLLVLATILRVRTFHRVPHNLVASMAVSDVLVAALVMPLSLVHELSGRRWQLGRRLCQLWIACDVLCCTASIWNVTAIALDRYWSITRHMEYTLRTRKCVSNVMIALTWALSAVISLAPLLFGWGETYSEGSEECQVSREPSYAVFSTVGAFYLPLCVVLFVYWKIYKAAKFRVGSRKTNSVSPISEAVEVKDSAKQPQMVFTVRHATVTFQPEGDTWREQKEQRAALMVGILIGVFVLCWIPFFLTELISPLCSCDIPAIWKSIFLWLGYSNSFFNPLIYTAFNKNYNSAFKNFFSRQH
T6 sequence (P28566 whole entry): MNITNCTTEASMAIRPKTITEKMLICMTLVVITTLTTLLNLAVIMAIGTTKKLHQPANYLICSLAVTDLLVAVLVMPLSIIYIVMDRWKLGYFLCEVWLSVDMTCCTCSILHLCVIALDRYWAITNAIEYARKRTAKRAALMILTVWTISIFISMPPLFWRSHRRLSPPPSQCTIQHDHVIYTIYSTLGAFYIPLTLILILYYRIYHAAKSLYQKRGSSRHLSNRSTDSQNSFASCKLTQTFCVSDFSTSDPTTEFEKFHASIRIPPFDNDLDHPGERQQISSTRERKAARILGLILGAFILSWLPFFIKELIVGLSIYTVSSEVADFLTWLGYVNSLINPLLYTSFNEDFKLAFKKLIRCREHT
T7 sequence (P50406 whole entry): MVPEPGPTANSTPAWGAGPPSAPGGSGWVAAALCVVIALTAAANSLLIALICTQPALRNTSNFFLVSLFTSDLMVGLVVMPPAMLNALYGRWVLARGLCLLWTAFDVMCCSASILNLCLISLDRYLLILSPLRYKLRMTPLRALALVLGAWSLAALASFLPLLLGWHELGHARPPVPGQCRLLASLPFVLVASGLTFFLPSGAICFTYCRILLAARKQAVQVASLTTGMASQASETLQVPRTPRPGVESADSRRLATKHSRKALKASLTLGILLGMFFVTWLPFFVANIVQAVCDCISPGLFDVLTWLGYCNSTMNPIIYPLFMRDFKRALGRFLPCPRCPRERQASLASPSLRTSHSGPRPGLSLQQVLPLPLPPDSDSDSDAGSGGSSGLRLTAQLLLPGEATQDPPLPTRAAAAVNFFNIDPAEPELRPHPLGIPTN
T5 sequence (P28221 whole entry): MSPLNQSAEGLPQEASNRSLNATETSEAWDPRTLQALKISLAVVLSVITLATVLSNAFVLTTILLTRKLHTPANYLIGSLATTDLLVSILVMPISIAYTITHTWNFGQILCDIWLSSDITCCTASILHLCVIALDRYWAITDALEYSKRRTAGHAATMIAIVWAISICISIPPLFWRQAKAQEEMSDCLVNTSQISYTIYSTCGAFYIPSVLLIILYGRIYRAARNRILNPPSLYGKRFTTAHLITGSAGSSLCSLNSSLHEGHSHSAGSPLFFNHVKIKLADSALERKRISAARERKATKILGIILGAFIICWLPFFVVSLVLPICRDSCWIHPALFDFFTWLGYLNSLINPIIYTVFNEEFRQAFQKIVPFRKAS
T4 sequence (P34969 whole entry): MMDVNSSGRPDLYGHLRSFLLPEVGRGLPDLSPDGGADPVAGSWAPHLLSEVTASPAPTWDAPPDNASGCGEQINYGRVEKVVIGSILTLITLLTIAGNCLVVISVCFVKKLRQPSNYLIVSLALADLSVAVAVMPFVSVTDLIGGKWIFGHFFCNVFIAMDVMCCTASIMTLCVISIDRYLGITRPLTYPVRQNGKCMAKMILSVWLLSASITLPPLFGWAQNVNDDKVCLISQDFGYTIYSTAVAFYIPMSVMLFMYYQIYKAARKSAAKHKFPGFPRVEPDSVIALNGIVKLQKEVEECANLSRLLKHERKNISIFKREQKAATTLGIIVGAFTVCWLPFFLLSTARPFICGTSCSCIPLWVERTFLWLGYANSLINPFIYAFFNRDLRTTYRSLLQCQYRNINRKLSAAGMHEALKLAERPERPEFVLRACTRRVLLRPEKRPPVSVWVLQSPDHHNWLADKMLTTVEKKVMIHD
T3 sequence (P28222 whole entry): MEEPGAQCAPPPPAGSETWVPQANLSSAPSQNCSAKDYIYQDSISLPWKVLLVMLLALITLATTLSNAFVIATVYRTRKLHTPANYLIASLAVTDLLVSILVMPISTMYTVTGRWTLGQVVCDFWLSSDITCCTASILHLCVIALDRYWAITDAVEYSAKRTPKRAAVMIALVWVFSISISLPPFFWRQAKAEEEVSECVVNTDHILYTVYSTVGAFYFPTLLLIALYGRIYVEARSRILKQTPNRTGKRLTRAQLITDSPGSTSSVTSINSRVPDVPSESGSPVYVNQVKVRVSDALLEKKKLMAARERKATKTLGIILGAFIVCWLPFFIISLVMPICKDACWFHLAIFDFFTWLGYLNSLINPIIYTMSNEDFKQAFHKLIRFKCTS
T8 sequence (P41595 whole entry): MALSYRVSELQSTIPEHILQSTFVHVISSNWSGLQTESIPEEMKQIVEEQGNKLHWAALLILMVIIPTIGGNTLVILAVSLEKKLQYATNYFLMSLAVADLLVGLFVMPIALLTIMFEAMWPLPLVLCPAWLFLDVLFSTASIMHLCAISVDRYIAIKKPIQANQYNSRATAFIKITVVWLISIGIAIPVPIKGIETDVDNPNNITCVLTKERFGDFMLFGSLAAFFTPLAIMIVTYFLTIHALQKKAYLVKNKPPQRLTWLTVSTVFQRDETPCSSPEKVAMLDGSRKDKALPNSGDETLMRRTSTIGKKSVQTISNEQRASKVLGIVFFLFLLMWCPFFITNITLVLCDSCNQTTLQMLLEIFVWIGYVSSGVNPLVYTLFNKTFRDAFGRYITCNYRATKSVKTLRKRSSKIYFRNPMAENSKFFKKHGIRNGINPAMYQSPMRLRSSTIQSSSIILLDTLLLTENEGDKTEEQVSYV

For the compound “2-(1H-indol-3-yl)-N,N-dimethylethanamine [2a]”, the Ki (usually a measure of affinity in units of concentration, obtained from inhibition or displacement) in test [1] (read-out: Compound 2a Ki) was found to be 110 ± 17 nM.
Regarding `CN(C)CCc1c[nH]c2ccccc12` [2a, 2-(1H-indol-3-yl)-N,N-dimethylethanamine], the Ki is over 10000 nM in test [2]; 66 ± 9 nM in test [3]; 77 ± 16 nM in test [4]; 29.3 ± 3.7 nM in test [5]; over 10000 nM in test [6]; 189 ± 32.5 nM in test [7].
As to `CN(C)CCc1c[nH]c2ccc(I)cc12` [2e, 2-(5-iodo-1H-indol-3-yl)-N,N-dimethylethanamine], the Ki in test [1] was 130 ± 16 nM; in test [2], 1250 nM; in test [3] it was 43 ± 5 nM; in test [4], 116 ± 13 nM; in test [5] it was 8.5 ± 1.38 nM; in test [6] it was 310 ± 33 nM. The Ki in test [8] came to 98 ± 4 nM; in test [7], 198 ± 20 nM.
